Experimental data from publication PMC11864979, “First-in-class ultralong-target-residence-time p38α inhibitors as a mitosis-targeted therapy for colorectal cancer” (Nature Cancer, 2025).
Like-named read-outs stand apart in the source and are kept apart here.

Key:
Test in all cases: selectivity profiling in a panel of 340 wild-type kinases (Reaction Biology Europe)
Assay type in all cases: binding
[1] = molecular target: T1, 340 wild-type kinases (Homo sapiens, UniProt Q9UK32)
T1 construct: purchased Reaction Biology Europe
T1 sequence (Q9UK32 whole entry): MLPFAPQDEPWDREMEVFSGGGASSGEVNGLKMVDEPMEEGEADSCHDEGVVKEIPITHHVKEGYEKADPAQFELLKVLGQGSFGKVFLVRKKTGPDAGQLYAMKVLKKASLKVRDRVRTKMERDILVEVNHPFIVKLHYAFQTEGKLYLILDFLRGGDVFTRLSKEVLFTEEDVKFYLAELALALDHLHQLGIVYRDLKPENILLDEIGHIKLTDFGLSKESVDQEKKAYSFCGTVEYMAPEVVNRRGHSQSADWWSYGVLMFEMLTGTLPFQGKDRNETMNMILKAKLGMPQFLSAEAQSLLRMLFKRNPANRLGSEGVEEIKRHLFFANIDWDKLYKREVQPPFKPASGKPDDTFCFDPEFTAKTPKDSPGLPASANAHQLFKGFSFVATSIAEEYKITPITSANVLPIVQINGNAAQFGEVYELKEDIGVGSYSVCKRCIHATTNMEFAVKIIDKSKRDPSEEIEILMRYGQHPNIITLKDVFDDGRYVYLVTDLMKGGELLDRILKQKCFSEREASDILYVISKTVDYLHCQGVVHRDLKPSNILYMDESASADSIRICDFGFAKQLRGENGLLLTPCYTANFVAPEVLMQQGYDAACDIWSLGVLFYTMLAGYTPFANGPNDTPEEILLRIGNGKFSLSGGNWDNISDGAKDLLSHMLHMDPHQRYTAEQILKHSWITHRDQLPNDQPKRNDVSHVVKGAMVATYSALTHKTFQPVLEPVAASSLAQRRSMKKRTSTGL

[2] = molecular target: T2, 340 wild-type kinases (Homo sapiens, UniProt Q13882)
T2 construct: purchased Reaction Biology Europe
T2 sequence (Q13882 whole entry): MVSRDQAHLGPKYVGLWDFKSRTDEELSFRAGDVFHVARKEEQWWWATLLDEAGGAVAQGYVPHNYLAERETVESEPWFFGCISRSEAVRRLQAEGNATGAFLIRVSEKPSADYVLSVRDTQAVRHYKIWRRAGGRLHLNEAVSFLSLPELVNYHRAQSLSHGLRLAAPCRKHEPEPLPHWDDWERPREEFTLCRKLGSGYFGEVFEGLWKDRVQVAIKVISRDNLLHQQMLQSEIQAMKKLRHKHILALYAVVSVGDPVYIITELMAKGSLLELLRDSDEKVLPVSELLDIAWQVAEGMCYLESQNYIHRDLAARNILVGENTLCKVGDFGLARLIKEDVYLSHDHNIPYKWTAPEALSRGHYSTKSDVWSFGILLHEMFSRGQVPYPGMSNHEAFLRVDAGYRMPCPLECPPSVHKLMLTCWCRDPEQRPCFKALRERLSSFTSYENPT

[3] = molecular target: T3, 340 wild-type kinases (Homo sapiens, UniProt Q99683)
T3 construct: purchased Reaction Biology Europe
T3 sequence (Q99683 1-1374): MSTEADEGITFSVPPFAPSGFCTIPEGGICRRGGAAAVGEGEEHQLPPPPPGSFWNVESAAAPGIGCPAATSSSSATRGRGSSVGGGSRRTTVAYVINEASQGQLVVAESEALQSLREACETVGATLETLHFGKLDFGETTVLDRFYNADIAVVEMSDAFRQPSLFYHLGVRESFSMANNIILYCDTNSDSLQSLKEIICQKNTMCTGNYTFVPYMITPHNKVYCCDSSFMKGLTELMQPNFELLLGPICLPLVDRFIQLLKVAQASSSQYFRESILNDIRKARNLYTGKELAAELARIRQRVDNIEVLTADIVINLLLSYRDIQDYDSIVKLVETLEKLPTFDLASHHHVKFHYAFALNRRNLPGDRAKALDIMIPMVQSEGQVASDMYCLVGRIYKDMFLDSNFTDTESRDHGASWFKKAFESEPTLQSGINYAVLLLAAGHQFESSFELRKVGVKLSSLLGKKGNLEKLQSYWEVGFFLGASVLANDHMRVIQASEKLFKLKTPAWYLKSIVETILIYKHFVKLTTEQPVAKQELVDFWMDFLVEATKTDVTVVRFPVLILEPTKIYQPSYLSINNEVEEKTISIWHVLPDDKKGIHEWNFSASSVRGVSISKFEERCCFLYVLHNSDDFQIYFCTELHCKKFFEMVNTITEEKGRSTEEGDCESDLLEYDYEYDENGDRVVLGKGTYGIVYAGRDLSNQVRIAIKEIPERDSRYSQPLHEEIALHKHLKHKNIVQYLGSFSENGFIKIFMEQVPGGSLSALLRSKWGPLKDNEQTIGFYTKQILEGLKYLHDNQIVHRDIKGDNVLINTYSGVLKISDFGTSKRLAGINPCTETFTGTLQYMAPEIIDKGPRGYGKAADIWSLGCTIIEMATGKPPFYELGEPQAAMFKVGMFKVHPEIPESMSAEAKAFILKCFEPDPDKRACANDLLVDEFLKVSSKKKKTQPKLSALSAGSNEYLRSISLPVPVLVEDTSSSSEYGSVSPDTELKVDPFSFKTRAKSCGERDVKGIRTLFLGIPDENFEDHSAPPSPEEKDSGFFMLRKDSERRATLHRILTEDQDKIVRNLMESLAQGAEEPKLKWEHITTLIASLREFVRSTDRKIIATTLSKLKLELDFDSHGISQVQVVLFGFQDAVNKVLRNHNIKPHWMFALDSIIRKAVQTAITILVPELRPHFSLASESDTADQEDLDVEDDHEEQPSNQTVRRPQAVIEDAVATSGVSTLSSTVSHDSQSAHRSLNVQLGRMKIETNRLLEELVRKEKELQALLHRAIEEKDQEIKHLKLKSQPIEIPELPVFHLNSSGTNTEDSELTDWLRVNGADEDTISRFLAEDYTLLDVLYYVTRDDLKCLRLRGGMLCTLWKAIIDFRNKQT

[4] = molecular target: T4, 340 wild-type kinases (Homo sapiens, UniProt Q15131)
T4 construct: purchased Reaction Biology Europe
T4 sequence (Q15131 whole entry): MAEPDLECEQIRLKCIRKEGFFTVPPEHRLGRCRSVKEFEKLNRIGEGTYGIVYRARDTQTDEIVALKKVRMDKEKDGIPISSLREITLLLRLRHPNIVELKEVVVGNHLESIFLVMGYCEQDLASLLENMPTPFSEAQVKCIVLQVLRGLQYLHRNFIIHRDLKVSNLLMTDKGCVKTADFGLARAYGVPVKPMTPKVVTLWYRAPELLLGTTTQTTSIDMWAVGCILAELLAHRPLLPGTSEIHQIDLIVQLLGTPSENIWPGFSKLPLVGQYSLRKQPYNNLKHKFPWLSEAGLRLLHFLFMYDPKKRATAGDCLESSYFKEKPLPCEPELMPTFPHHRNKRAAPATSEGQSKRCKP

[5] = molecular target: T5, 340 wild-type kinases (Homo sapiens, UniProt Q04912)
T5 construct: purchased Reaction Biology Europe
T5 sequence (Q04912 25-1400): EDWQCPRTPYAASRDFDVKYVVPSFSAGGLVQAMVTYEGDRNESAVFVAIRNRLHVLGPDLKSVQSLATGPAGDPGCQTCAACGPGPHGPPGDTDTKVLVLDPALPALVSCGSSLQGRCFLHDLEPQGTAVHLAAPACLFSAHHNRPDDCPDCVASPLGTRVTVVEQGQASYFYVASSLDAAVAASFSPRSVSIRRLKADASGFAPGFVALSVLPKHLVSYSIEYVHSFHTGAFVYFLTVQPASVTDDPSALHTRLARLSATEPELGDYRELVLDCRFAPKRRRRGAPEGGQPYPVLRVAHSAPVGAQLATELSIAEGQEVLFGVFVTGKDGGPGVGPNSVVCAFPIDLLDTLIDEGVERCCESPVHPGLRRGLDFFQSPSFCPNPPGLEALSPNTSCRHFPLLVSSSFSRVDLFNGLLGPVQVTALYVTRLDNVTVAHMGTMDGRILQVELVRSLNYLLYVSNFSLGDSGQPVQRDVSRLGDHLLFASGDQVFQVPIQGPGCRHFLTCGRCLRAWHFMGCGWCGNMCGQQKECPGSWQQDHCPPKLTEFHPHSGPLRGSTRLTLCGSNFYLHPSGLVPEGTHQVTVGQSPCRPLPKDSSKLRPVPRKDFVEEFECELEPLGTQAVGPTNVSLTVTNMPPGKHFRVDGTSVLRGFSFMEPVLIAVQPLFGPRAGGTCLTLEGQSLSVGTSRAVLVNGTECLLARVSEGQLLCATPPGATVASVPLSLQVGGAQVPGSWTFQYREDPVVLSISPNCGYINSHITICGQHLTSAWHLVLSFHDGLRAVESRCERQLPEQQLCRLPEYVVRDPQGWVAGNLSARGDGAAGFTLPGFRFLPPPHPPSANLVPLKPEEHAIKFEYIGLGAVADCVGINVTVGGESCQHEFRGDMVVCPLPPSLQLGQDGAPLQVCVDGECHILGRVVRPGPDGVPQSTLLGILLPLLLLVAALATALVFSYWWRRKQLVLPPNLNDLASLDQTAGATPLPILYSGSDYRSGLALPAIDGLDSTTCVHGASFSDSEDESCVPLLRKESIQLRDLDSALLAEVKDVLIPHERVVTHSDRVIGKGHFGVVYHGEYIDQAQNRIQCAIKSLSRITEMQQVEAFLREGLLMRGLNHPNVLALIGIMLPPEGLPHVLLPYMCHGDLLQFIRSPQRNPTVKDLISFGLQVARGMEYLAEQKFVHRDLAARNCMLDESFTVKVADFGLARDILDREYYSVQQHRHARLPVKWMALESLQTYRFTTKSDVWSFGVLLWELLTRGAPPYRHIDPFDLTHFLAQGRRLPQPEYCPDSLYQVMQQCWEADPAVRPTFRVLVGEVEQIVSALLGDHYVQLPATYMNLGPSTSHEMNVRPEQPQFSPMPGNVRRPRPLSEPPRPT

[6] = molecular target: T6, 340 wild-type kinases (Homo sapiens, UniProt O75914)
T6 construct: purchased Reaction Biology Europe

[7] = molecular target: T7, 340 wild-type kinases (Homo sapiens, UniProt P42679)
T7 construct: purchased Reaction Biology Europe
T7 sequence (P42679 1-507): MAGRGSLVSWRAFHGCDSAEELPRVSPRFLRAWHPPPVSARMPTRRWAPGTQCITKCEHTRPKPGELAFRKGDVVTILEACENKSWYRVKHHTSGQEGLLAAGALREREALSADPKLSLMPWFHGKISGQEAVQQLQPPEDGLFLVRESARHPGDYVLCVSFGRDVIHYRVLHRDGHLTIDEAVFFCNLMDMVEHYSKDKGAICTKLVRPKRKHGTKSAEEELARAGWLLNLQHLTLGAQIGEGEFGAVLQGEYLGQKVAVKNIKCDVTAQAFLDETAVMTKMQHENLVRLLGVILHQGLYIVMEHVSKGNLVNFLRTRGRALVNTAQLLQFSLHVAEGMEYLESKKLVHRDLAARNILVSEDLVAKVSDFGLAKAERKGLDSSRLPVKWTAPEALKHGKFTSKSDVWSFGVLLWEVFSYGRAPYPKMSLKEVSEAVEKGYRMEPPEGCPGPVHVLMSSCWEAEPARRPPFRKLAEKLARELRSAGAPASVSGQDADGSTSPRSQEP

[8] = molecular target: T8, 340 wild-type kinases (Homo sapiens, UniProt P07332)
T8 construct: purchased Reaction Biology Europe
T8 sequence (P07332 whole entry): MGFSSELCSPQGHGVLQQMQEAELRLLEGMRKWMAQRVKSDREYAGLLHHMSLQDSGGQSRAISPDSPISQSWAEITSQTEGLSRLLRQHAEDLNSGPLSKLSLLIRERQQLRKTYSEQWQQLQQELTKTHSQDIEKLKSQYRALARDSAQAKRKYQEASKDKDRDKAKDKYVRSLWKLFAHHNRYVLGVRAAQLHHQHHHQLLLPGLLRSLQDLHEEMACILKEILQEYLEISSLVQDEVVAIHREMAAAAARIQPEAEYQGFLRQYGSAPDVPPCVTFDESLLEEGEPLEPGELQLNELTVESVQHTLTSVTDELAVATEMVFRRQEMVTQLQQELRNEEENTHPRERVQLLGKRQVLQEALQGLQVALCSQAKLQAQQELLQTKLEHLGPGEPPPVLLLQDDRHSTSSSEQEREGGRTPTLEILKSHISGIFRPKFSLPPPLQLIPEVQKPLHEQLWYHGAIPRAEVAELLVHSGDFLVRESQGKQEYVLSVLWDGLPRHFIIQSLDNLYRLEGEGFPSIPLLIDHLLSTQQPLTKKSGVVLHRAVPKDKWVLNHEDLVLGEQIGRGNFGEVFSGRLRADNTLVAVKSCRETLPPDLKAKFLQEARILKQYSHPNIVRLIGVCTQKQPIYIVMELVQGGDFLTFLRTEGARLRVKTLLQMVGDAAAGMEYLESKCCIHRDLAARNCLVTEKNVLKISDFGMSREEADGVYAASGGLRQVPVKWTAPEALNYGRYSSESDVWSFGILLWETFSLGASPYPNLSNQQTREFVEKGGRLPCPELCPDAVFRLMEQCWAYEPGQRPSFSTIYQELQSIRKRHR

[9] = molecular target: T9, 340 wild-type kinases (Homo sapiens, UniProt Q9Y4K4)
T9 construct: purchased Reaction Biology Europe
T9 sequence (Q9Y4K4 whole entry): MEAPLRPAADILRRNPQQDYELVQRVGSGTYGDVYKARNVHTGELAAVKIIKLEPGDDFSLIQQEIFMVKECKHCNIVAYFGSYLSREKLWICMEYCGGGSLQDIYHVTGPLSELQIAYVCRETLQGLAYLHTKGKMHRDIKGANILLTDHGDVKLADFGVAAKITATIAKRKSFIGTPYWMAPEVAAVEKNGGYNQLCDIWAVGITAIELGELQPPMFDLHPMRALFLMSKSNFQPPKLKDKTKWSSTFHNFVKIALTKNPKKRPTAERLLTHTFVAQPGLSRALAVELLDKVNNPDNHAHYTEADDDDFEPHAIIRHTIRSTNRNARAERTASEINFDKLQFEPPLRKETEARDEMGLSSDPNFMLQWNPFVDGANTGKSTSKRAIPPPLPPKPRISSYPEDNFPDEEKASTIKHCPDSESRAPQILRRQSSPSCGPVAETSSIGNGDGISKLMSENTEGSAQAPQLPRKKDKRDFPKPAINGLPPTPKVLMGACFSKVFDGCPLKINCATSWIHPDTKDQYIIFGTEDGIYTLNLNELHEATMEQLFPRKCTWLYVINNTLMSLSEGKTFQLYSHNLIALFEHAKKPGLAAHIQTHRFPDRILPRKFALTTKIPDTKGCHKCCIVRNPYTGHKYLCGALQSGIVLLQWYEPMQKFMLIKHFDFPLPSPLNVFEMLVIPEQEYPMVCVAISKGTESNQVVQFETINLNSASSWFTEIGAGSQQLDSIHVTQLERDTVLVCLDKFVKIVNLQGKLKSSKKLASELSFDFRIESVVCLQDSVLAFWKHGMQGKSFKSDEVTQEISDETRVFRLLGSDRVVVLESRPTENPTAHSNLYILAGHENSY

Work on `CNC(=O)c1ccc2c(c1)C(=O)c1ccc(Nc3ccc(F)c(NC(=O)C4CC4)c3)cc1CC2` [Compound 2015] yielded a remaining activity at 0.2 µM ([1]; 0.2 µM 2015, read-out: RPS6KA6 residual activity) of 89.7%, a remaining activity at 1 µM ([1]; 1 µM 2015, read-out: RPS6KA6 residual activity) of 81.3% and a remaining activity at 0.2 µM ([1]; RPS6KA6, 0.2 µM, read-out: residual activity) of 89.7%. The remaining activity at 1 µM ([1]; RPS6KA6, 1 µM, read-out: residual activity) was 81.3%, the remaining activity at 0.2 µM ([2]; 0.2 µM 2015, read-out: BRK residual activity) was 100% and the remaining activity at 1 µM ([2]; 1 µM 2015, read-out: BRK residual activity) was 108%. It also gave a remaining activity at 0.2 µM ([2]; BRK, 0.2 µM, read-out: residual activity) of 100%, a remaining activity at 1 µM ([2]; BRK, 1 µM, read-out: residual activity) of 108% and a remaining activity at 0.2 µM ([3]; 0.2 µM 2015, read-out: ASK1 residual activity) of 95.5%. It also gave a remaining activity at 1 µM ([3]; 1 µM 2015, read-out: ASK1 residual activity) of 95%, a remaining activity at 0.2 µM ([3]; ASK1, 0.2 µM, read-out: residual activity) of 95.5% and a remaining activity at 1 µM ([3]; ASK1, 1 µM, read-out: residual activity) of 95%. The remaining activity at 0.2 µM ([4]; 0.2 µM 2015, read-out: CDK10/CycQ residual activity) was 108%, the remaining activity at 1 µM ([4]; 1 µM 2015, read-out: CDK10/CycQ residual activity) was 97.1% and the remaining activity at 0.2 µM ([4]; CDK10/CycQ, 0.2 µM, read-out: residual activity) was 108%. It also gave a remaining activity at 1 µM ([4]; CDK10/CycQ, 1 µM, read-out: residual activity) of 97.1%, a remaining activity at 0.2 µM ([5]; 0.2 µM 2015, read-out: RON residual activity) of 97% and a remaining activity at 1 µM ([5]; 1 µM 2015, read-out: RON residual activity) of 101%. The remaining activity at 0.2 µM ([5]; RON, 0.2 µM, read-out: residual activity) was 97%, the remaining activity at 1 µM ([5]; RON, 1 µM, read-out: residual activity) was 101% and the remaining activity at 0.2 µM ([6]; 0.2 µM 2015, read-out: PAK3 residual activity) was 97.6%. For the same molecule, the remaining activity at 1 µM ([6]; 1 µM 2015, read-out: PAK3 residual activity) was 96.3%, the remaining activity at 0.2 µM ([6]; PAK3, 0.2 µM, read-out: residual activity) was 97.6% and the remaining activity at 1 µM ([6]; PAK3, 1 µM, read-out: residual activity) was 96.3%. It also gave a remaining activity at 0.2 µM ([7]; 0.2 µM 2015, read-out: MATK residual activity) of 112%, a remaining activity at 1 µM ([7]; 1 µM 2015, read-out: MATK residual activity) of 100% and a remaining activity at 0.2 µM ([7]; MATK, 0.2 µM, read-out: residual activity) of 112%. The remaining activity at 1 µM ([7]; MATK, 1 µM, read-out: residual activity) was 100%, the remaining activity at 0.2 µM ([8]; 0.2 µM 2015, read-out: FES residual activity) was 105% and the remaining activity at 1 µM ([8]; 1 µM 2015, read-out: FES residual activity) was 92.1%. For the same molecule, the remaining activity at 0.2 µM ([8]; FES, 0.2 µM, read-out: residual activity) was 105%, the remaining activity at 1 µM ([8]; FES, 1 µM, read-out: residual activity) was 92.1% and the remaining activity at 0.2 µM ([9]; 0.2 µM 2015, read-out: MAP4K5 residual activity) was 101%. It also gave a remaining activity at 1 µM ([9]; 1 µM 2015, read-out: MAP4K5 residual activity) of 91.4%, a remaining activity at 0.2 µM ([9]; MAP4K5, 0.2 µM, read-out: residual activity) of 101% and a remaining activity at 1 µM ([9]; MAP4K5, 1 µM, read-out: residual activity) of 91.4%.
